Laboratory results reported in patent EP0308782A2, “Antimycotic preparations” (BAYER AG, priority 1987, dated 1989).
Converted amounts (≈) assume the structure as drawn.

Experiments:
[1] = test system: Dermatophyten, Schimmelpilze, Hefen; assay: Antimycotic in-vitro activity, serial dilution test, overall spectrum; format: cell-based; conditions: statement in words on the in-vitro serial dilution test
Description: (§1) Die in-vitro-Prüfungen wurden im Reihenverdünnungstest mit Keiminokula von durchschnittlich 5 x 10³ bis 10⁴ Keimen/ml Substrat durchgeführt. Als Nährmedium dienten • a) für Dermatophyten und Schimmelpilze: Sabouraud's milieu d'epreuve • b) für Hefen: Fleischextrakt-Traubenzucker-Bouillon.
(§2) Die Bebrütungstemperatur betrug 28 °C bis 37 °C, die Bebrütungsdauer lag bei 24 bis 96 Stunden bei Hefen und 96 Stunden bei Dermatophyten und Schimmelpilzen.

Microsporum canis = assay: Antimycotic in-vitro activity, serial dilution test (MIC); format: cell-based; conditions: Sabouraud's milieu d'epreuve, 28 °C to 37 °C, 96 h incubation, inoculum 5 x 10³ to 10⁴ germs/ml; for MIC: Microsporum canis, 96 h, read-out: MHK-Werte Microsporum canis
Description: as §1, §2

Trichophyton mentagr. = assay: as above; format: cell-based; conditions: Sabouraud's milieu d'epreuve, 28 °C to 37 °C, 96 h incubation, inoculum 5 x 10³ to 10⁴ germs/ml; for MIC: Trichophyton, read-out: MHK-Werte Trichophyton mentagr.
Description: as §1, §2

Torulopsis glabrata = assay: as above; format: cell-based; conditions: meat extract-glucose broth, 28 °C to 37 °C, 24 to 96 h incubation, inoculum 5 x 10³ to 10⁴ germs/ml; for MIC: Nakaseomyces glabratus, read-out: MHK-Werte Torulopsis glabrata
Description: as §1, §2

Candida albicans = assay: as above; format: cell-based; conditions: meat extract-glucose broth, 28 °C to 37 °C, 24 to 96 h incubation, inoculum 5 x 10³ to 10⁴ germs/ml; for MIC: Candida albicans, read-out: MHK-Werte Candida albicans
Description: as §1, §2

Aspergillus fumigatus = assay: as above; format: cell-based; conditions: Sabouraud's milieu d'epreuve, 28 °C to 37 °C, 96 h incubation, inoculum 5 x 10³ to 10⁴ germs/ml; for MIC: Aspergillus fumigatus, read-out: MHK-Werte Aspergillus fumigatus
Description: as §1, §2

Candida-Zellen = assay: Antimycotic in-vivo activity (oral) in mouse candidosis; design: species or system Mäuse vom Typ SPF-CF₁; conditions: for Antimykotische in-vivo-Wirksamkeit (oral) bei Mäusecandidose: mice infected i.v. with 1 - 2 x 10⁶ Candida cells, 10 - 100 mg/kg oral 1 h before and 7 h after infection, survivors on day 6 p.i.; for antimykotische Wirkung: statement in words, mouse candidosis, oral 10 - 100 mg/kg
Description: Mäuse vom Typ SPF-CF₁ wurden intravenös mit 1 - 2 x 10⁶ logarithmisch wachsenden Candida-Zellen, die in physiologischer Kochsalzlösung suspendiert werden, infiziert. Eine Stunde vor und sieben Stunden nach der Infektion werden die Tiere mit jeweils 10 - 100 mg/kg Körpergewicht der Präparate oral behandelt.
Unbehandelte Tiere starben 3 bis 6 Tage post infektionem. Die Überlebensrate am 6.Tag post infektionem betrug bei unbehandelten Kontrolltieren etwa 5 %.

Row | SMILES | antimykotisches Wirkungsspektrum [1] | MHK-Werte Microsporum canis (Microsporum canis) [µg/ml Nährmedium] | MHK-Werte Trichophyton mentagr. (Trichophyton mentagr.) [µg/ml Nährmedium] | MHK-Werte Torulopsis glabrata (Torulopsis glabrata) [µg/ml Nährmedium] | MHK-Werte Candida albicans (Candida albicans) [µg/ml Nährmedium] | MHK-Werte Aspergillus fumigatus (Aspergillus fumigatus) [µg/ml Nährmedium] | MIC (Microsporum canis) [µg/mL] | MIC (Trichophyton mentagr.) [µg/mL] | MIC (Aspergillus fumigatus) [µg/mL] | MIC (Torulopsis glabrata) [µg/mL] | MIC (Candida albicans) [µg/mL] | Antimykotische in-vivo-Wirksamkeit (oral) bei Mäusecandidose (Candida-Zellen) | antimykotische Wirkung (Candida-Zellen)
1 | CC(C)(n1cccn1)C(O)(CCc1ccc(Cl)cc1)Cn1cncn1 (centres unmarked) [Beispiel 1, 5-(4-Chlorphenyl)-2-methyl-2-(pyrazol-1-yl)-3-(1,2,4-triazol-methyl)-pentan-3-ol] | gutes antimykotisches Wirkungsspektrum | 2 | <1 | 2 | 2 | 2 |  |  |  |  |  |  | 
2 | CC(C)(n1cccn1)C(O)(CCc1ccc(Cl)cc1)Cn1cncn1 (centres unmarked) [Beispiel 17] |  |  |  | 32 | 16 |  | 2 (≈ 5.56 µM) | < 1 | 2 (≈ 5.56 µM) |  |  |  | 
3 | Cc1cc(Cl)ccc1OCC(O)(Cn1cncn1)C(C)(C)n1cncn1 (centres unmarked) [Beispiel 12] | gutes antimykotisches Wirkungsspektrum |  |  |  |  |  |  | 4 (≈ 10.6 µM) | > 64 | > 64 | 16 (≈ 42.5 µM) |  | 
4 | Cc1cc(C)n(C(C)(C)C(O)(CCc2ccc(Cl)cc2)Cn2cncn2)n1 (centres unmarked) [Beispiel 21] |  |  |  |  |  |  | < 1 | < 1 | 2 (≈ 5.16 µM) | 16 (≈ 41.2 µM) | 8 (≈ 20.6 µM) |  | 
5 | CC(C)(n1cncn1)C(O)(Cn1cncn1)c1ccc(Cl)cc1 (centres unmarked) [(B), reference compound] |  |  |  |  |  |  | > 64 | 8 (≈ 24 µM) | > 64 | > 64 | > 64 |  | 
6 | CC(C)(n1cccn1)C(O)(/C=C/c1ccc(Cl)cc1)Cn1cncn1 (centres unmarked) [Beispiel 7] | gutes antimykotisches Wirkungsspektrum |  |  |  |  |  | 4 (≈ 11.2 µM) | < 1 | 4 (≈ 11.2 µM) | 16 (≈ 44.7 µM) | < 1 |  | 
7 | CC(C)(n1cccn1)C(O)(CCc1ccc(Cl)cc1Cl)Cn1cncn1 (centres unmarked) [Beispiel 23] |  |  |  |  |  |  |  | 2 (≈ 5.07 µM) | 8 (≈ 20.3 µM) | 2 (≈ 5.07 µM) | 8 (≈ 20.3 µM) |  | 
8 | CC(C)(n1cncn1)C(O)(CSc1ccc(Cl)cc1)Cn1cncn1 (centres unmarked) [Beispiel 9] | gutes antimykotisches Wirkungsspektrum |  |  |  |  |  |  | 2 (≈ 5.28 µM) | 64 (≈ 169 µM) | 32 (≈ 84.5 µM) | < 1 |  | 
9 | CC(C)(Cn1cncn1)C(O)(CCc1ccc(-c2ccccc2)cc1)Cn1cncn1 (centres unmarked) [Beispiel 5] | gutes antimykotisches Wirkungsspektrum |  |  |  |  |  |  | 2 (≈ 4.8 µM) | 8 (≈ 19.2 µM) | 32 (≈ 76.8 µM) | 8 (≈ 19.2 µM) | +++ (Wirkung = 60 % Überlebende am 6.Tag.p.i.) | gute antimykotische Wirkung
10 | CC(C)(n1cccn1)C(O)(CCc1ccc(F)cc1)Cn1cncn1 (centres unmarked) [Beispiel 24] |  |  |  |  |  |  | 4 (≈ 11.6 µM) | < 1 | 8 (≈ 23.3 µM) | 4 (≈ 11.6 µM) | < 1 |  | 
11 | CC(C)(n1cccn1)C(O)(CCc1ccc(F)cc1Cl)Cn1cncn1 (centres unmarked) [Beispiel 27] |  |  |  |  |  |  |  | 4 (≈ 10.6 µM) | 32 (≈ 84.7 µM) | 16 (≈ 42.3 µM) | 8 (≈ 21.2 µM) |  | 
12 | Cc1cc(C)n(C(C)(C)C(O)(CCc2ccc(F)cc2)Cn2cncn2)n1 (centres unmarked) [Beispiel 25] |  |  |  |  |  |  |  | 2 (≈ 5.38 µM) | 4 (≈ 10.8 µM) | > 64 | 16 (≈ 43.1 µM) |  | 
13 | CC(C)(n1cncn1)C(O)(COc1ccc(Cl)cc1)Cn1cncn1 (centres unmarked) [Beispiel 10] | gutes antimykotisches Wirkungsspektrum |  |  |  |  |  |  | 8 (≈ 22 µM) | > 64 | > 64 | 2 (≈ 5.51 µM) | +++++ (sehr gute Wirkung = 90 % Überlebende am 6.Tag.p.i.) | gute antimykotische Wirkung
14 | CC(C)(n1cccn1)C(O)(CCc1ccc(F)cc1F)Cn1cncn1 (centres unmarked) [Beispiel 22] |  |  |  |  |  |  |  | 2 (≈ 5.53 µM) | 16 (≈ 44.3 µM) | 8 (≈ 22.1 µM) | 2 (≈ 5.53 µM) |  | 
15 | OC(Cn1cncn1)(Cn1cncn1)c1ccccc1 [(A), reference compound] |  |  |  |  |  |  |  | 64 (≈ 237 µM) | > 64 | > 64 | 64 (≈ 237 µM) |  | 
16 | CC(C)(n1cncn1)C(O)(CCc1ccc(Cl)cc1)Cn1cncn1 (centres unmarked) [Beispiel 29] |  |  |  |  |  |  | 4 (≈ 11.1 µM) | < 1 | 16 (≈ 44.3 µM) | 32 (≈ 88.7 µM) | < 1 |  | 
17 | CC(C)(n1cccn1)C(O)(CCc1ccccc1F)Cn1cncn1 (centres unmarked) [Beispiel 19] |  |  |  |  |  |  |  | 2 (≈ 5.82 µM) | 16 (≈ 46.6 µM) | 8 (≈ 23.3 µM) | 16 (≈ 46.6 µM) |  | 
18 | CC(C)(n1cccn1)C(O)(COc1ccc(Cl)cc1)Cn1cncn1 (centres unmarked) [Beispiel 28] |  |  |  |  |  |  | 8 (≈ 22.1 µM) | < 1 | 16 (≈ 44.2 µM) | 16 (≈ 44.2 µM) | 32 (≈ 88.4 µM) |  | 
19 | CC(C)(n1cccn1)C(O)(CCc1ccc(Cl)cc1)Cn1cncn1 (centres unmarked) [Beispiel 18] |  | 4 | <1 | 2 | 8 | 2 |  |  |  |  |  |  | 
20 | CC(C)(Cn1cncn1)C(O)(CCc1ccc2ccccc2c1)Cn1cncn1 (centres unmarked) [Beispiel 2, 4,4-Dimethyl-1-(2-naphthyl)-5-(1,2,4-triazol-1-yl)-3-(1,2,4-triazol-1-yl-methyl)-3-pentanol] | gutes antimykotisches Wirkungsspektrum |  |  |  |  |  |  | 4 (≈ 10.2 µM) | > 64 | > 64 | 32 (≈ 81.9 µM) |  | 
21 | CC(C)(n1cccn1)C(O)(CCc1ccc(Cl)cc1F)Cn1cncn1 (centres unmarked) [Beispiel 26] |  |  |  |  |  |  | 2 (≈ 5.29 µM) | < 1 | 2 (≈ 5.29 µM) | 32 (≈ 84.7 µM) | 8 (≈ 21.2 µM) |  | 
22 | CC(C)(n1cncn1)C(O)(C=Cc1ccc(Cl)cc1)Cn1cncn1 (centres unmarked) [Beispiel 8] |  |  |  |  |  |  |  |  |  |  |  | ++++ (gute Wirkung = 80 % Überlebende am 6.Tag.p.i.) | gute antimykotische Wirkung
23 | Cc1ccc(OCC(O)(Cn2cncn2)C(C)(C)n2cncn2)c(Cl)c1 (centres unmarked) [Beispiel 13] | gutes antimykotisches Wirkungsspektrum |  |  |  |  |  |  | 2 (≈ 5.31 µM) | > 64 | > 64 | 32 (≈ 84.9 µM) |  | 
24 | CC(C)(n1cccn1)C(O)(CCc1ccc(OC(F)(F)F)cc1)Cn1cncn1 (centres unmarked) [Beispiel 20] |  |  |  |  |  |  | 2 (≈ 4.89 µM) | < 1 | < 1 | 4 (≈ 9.77 µM) | 4 (≈ 9.77 µM) |  | 
25 | CC(C)(n1cncn1)C(O)(COc1ccc(Cl)cc1Cl)Cn1cncn1 (centres unmarked) [Beispiel 11] | gutes antimykotisches Wirkungsspektrum |  |  |  |  |  |  | 2 (≈ 5.03 µM) | > 64 | > 64 | 8 (≈ 20.1 µM) |  | 
